Results: publication PMC8348110, “A Novel Peptide Derived from the Transmembrane Domain of Romo1 Is a Promising Candidate for Sepsis Treatment and Multidrug-Resistant Bacteria” (International Journal of Molecular Sciences, 2021)
Values after ≈ are worked out from the molar mass of the structure shown. Residues, ends and D or L forms follow the SMILES beside them.

Key:
[1] = test system: Carbapenem-resistant P. aeruginosa (CRPA), clinical isolate; assay type: cell-based, Pseudomonas aeruginosa; settings: 1 h
In short: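 Mid-log clinical isolates diluted to 5 × 10^5 CFU/mL in 10 mM sodium phosphate (pH 7.4) with 1% TS broth, exposed 1 h to peptides two-fold diluted from 64 μg/mL, then plated on TS agar overnight at 37 °C. MBC is the lowest concentration with no colonies.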

[2] = test system: Carbapenem-resistant A. baumannii, clinical isolate; assay type: cell-based, Acinetobacter baumannii; settings: 1 h
Text: (§1) Acinetobacter baumannii (ATCC 19606), B. subtilis (ATCC 6633), E. aerogenes (ATCC 13048), E. coli (ATCC 25922), E. faecalis (ATCC 19433), E. faecium (ATCC 19434), K. pneumoniae (ATCC 13883), P. aeruginosa (ATCC 27853), S. aureus (ATCC 29213), S. sindenensis (ATCC 23963), and MRSA (ATCC 33591) were purchased from the American Type Culture Collection (ATCC; Gaithersburg, MD, USA). Streptococcus pneumoniae (NCCP 14585), vancomycin-resistant E. faecium (NCCP 11522), and vancomycin-resistant S. aureus (NCCP 15872) were purchased from the National Culture Collection for Pathogens (NCCP; Cheongju, Korea). The isolation and use of carbapenem-resistant bacterial strains from a patient were approved (2015AN0129) by the Institutional Review Board (IRB) of Korea University Hospital. […]
(§2) The minimum bactericidal concentration (MBC) was determined as previously described with minor modifications. […] The value of MBC was determined at the lowest concentrations at which no colonies were identified.
(§3) We used the CFU counting method to measure antibacterial activity, with all bacteria cultured to the mid-log phase in an appropriate broth medium. Bacterial CFUs were counted after overnight culture at 37 °C on TS or LB agar plates. The MBC value and antibacterial activity in blood components were determined as previously described. […]

[3] = test system: Carbapenem-resistant K. pneumoniae, clinical isolate; assay type: cell-based, Klebsiella pneumoniae; settings: 1 h
Text: as §1, §2, §3

HeLa cells = assay type: cell-based, human
Procedure: Mammalian cell viability was measured using a 3-(4,5-dimethylthiazol-2-yl)-2,5-diphenyltetrazolium bromide (MTT) assay in HeLa and HEK 293 cells. Cells were cultured on 96-well plates and incubated separately with AMPR-11, AMPR-21, AMPR-22, magainin 2, or daptomycin. After incubation for an hour, the cells were incubated with MTT solution (2 mg/mL of MTT in PBS) for an hour, and the media were removed, and dimethyl sulfoxide was added to allow the MTT formazans to solubilize. The optical density was measured using a SpectraMax Plus 384 microplate reader (Molecular Devices, San Jose, CA, USA) at 550 nm.

human erythrocytes = assay: Hemolysis assay; assay type: cell-based; settings: 2% erythrocytes in PBS, 1 h 37 °C, absorbance 550 nm; up to / at 256 µg/mL
Procedure: (§4) For the hemolytic assay, mouse and human whole blood was diluted with PBS (pH 7.4) and centrifuged for 10 min at 500× g. After removing the supernatant and rinsing the pellet three times with PBS, we resuspended the erythrocytes in PBS at 2% volume. The blood solution was added to the solution of peptides with two-fold serial dilution on a 96-well plate. After incubation for an hour at 37 °C, the plate was centrifuged at 2500× g for 10 min, and the absorbance of the supernatant was measured at 550 nm. The PBS-treated sample was the negative control, and the 0.1% Triton X-100–treated sample was the positive control. To measure white blood cell toxicity, mouse and human PBMCs were freshly isolated as previously described, and 70% ethanol (positive control) or AMPR-22 was administered using two-fold diluted concentrations (0 to 256 μg/mL) for 30 min. To measure cell death, a LIVE/DEAD® fixable green dead cell stain kit (Thermo Fisher Scientific, Waltham, MS, USA) was used following the manufacturer′s instructions, and flow cytometry was performed using a FACS Canto II (BD Biosciences, CA, USA). The toxicity of AMPR-22 was compared with negative (PBS-treated) and positive controls, and the data were analyzed using FlowJo software (Tree Star, OR, USA).

mouse erythrocytes = assay: Hemolysis assay; assay type: cell-based; settings: 2% erythrocytes in PBS, 1 h 37 °C, absorbance 550 nm; concentrations up to 256 µg/mL
Procedure: as §4

CC[C@H](C)[C@H](NC(=O)CNC(=O)CNC(=O)[C@@H](NC(=O)[C@H](C)NC(=O)[C@H](CCSC)NC(=O)[C@H](Cc1ccccc1)NC(=O)[C@@H](NC(=O)CNC(=O)[C@H](Cc1ccccc1)NC(=O)[C@H](CCCCN)NC(=O)CNC(=O)CNC(=O)[C@H](CCCCN)NC(=O)[C@H](CCCCN)NC(=O)[C@H](CCSC)NC(=O)[C@H](CCSC)NC(=O)[C@H](CCCCN)NC(=O)[C@@H](N)CCCCN)[C@@H](C)O)[C@@H](C)CC)C(=O)N[C@@H](CCCNC(=N)N)C(=O)O [AMPR-22] (H-KKMMKKGGKFGTFMAIGGIR-OH) was tested, and the “MBC Value, CRPA” value [1] was 4 µg/mL (≈ 1.83 µM), the “MBC Value, Carbapenem-resistant P. aeruginosa” value [1] was 4 µg/mL (≈ 1.83 µM) and the “MBC Value, Carbapenem-resistant A. baumannii” value [2] was 1 µg/mL (≈ 0.457 µM). For the same compound, the “MBC Value, Carbapenem-resistant K. pneumoniae” value [3] was 4 µg/mL (≈ 1.83 µM), the “Cytotoxicity, HeLa cells” value (HeLa cells) was “slight cytotoxicity” and the “Hemolytic activity against human erythrocytes” value (human erythrocytes) was “negligible hemolytic activity”. The “Hemolytic activity against mouse erythrocytes” value (mouse erythrocytes) was “relatively endurable hemolysis properties”.
